Measured values published in patent US5585492A, “LTA4 Hydrolase inhibitors” (priority 1994, dated 1996).

test system: LTB4 production in human blood; test: Inhibition of Calcium Ionophore-Induced LTB4 Production in Human Blood (HWB); assay type: cell-based; conditions: Homo sapiens, human whole blood, A23187 20 mcg/ml; read-out: Inhibition of Calcium Ionophore-Induced LTB4 Production in Human Blood IC50 HWB
Protocol: One or more concentrations of the leukotriene A4 hydrolass inhibitor compounds being tested were prepared (diluted in DMSO) and 2 μl added and gently mixed with the diluted whole blood. After incubating for 15 minutes at 37° C. in a humidified incubator, calcium ionophore A23187 (Sigma Chemical Co., St. Louis, Mo.) was added to a final concentration of 20 mcg/ml and the incubation continued under the same conditions for an additional 10 minutes to allow LTB4 formation. The reaction was terminated by centrifugation (833 g, 10 minutes at 4° C.) and supernatant were analyzed for LTB4 and thromboxane by commercially available enzyme-linked immunoassays (Caymen Chemical Co., Ann Arbor, Mich.) according to the manufacturer's instructions. The IC50 of each test compound was determined from the amount of inhibition of LTB4 production as compared to an essentially identical assay in which no inhibitor compound was present.

| IC50 [µM] | Structure (SMILES) |
| --- | --- |
| 8.9 | c1ccc(Cc2ccc(OCCCn3cnc4cccnc43)cc2)cc1 [Example 341A] |
| 1.18 | CCOC(=O)C1CCCN(CCCOc2ccc(Cc3ccccc3)cc2)C1 (stereo not drawn) [Example 269] |
| 0.359 | C[C@@H]1C[C@H](C(N)=O)CCN1CCOc1ccc(Cc2ccccc2)cc1 (relative stereo) [Example 297] |
| 0.9 | CC1CC(C#N)CCN1CCOc1ccc(Cc2ccccc2)cc1 (stereo not drawn) [Example 444] |
| 0.73 | NC(=O)C1CCN(CCOc2ccc(Cc3ccccc3)cn2)CC1 [Example 147] |
| 0.21 | OCC1CCCN1CCOc1ccc(Cc2ccccc2)cc1 (stereo not drawn) [Example 385] |
| 8.76 | CC(C)(C)OC(=O)C1CCN(CCCOc2ccc(Cc3ccccc3)cc2)CC1 [Example 263] |
| 11.8 | [O-][S+](CCN1CCCC1)c1ccc(Cc2ccccc2)cc1 (stereo not drawn) [Example 69] |
| 0.367 | CC1CC(C(N)=NO)CCN1CCOc1ccc(Cc2ccccc2)cc1 (stereo not drawn) [Example 445] |
| 0.63 | c1ccc(Cc2ccc(OCCNC3CCCC3)cc2)cc1 [Example 241] |
| 0.043 | c1csc(Cc2ccc(OCCN3CCCC3)cc2)c1 [Example 133] |
| 0.66 | CNC(=O)CCNCCCOc1ccc(Cc2ccccc2)cc1 [Example 422] |
| 2.12 | c1ccc(Cc2ccc(OCCn3ccc4ncccc43)cc2)cc1 [Example 342] |
| 0.58 | COC(=O)CCNCCCOc1ccc(Cc2ccccc2)cc1 [Example 267] |
| 0.142 | c1ccc(Cc2ccc(OCCN3CC4CCC3CC4)cc2)cc1 [Example 500] |
| 0.5 | c1ccc2ncc(Cc3ccc(OCCN4CCCC4)cc3)cc2c1 [Example 132] |
| 4 | c1ccc(Cc2ccc(OC(Cc3ccccc3)CN3CCCC3)cc2)cc1 (stereo not drawn) [Example 406] |
| 0.758 | CCOC(=O)[C@@H]1CCN(CCOc2ccc(Cc3ccccc3)cc2)[C@H](C)C1 (relative stereo) [Example 298] |

Second part, the compound before the results:

| Structure (SMILES) | IC50 [µM] |
| --- | --- |
| c1ccc(Cc2cnc3c(c2)CC(CN2CCCC2)O3)cc1 (stereo not drawn) [Example 287] | 2.39 |
| c1ccc(COc2ccc(OCCn3cccc4ncnc3-4)cc2)cc1 [Example 346C] | 6.69 |
| FC(F)(F)c1cccc(COc2ccc(OCCN3CCCC3)cc2)c1 [Example 209] | 2.34 |
| c1ccc(Oc2ccc(OCCN3CCCC3)nc2)cc1 [Example 65] | 0.51 |
| c1ccc(Cc2ccc3c(c2)CC(Cn2cccc4ncnc2-4)O3)cc1 (stereo not drawn) [Example 359C] | 4.2 |
| NC(=O)C1CCN(CC2Cc3cc(Cc4ccccc4)cnc3O2)CC1 (stereo not drawn) [Example 288] | 0.96 |
| CC(=O)N1CCN(CC2Cc3cc(Cc4ccccc4)ccc3O2)CC1 (stereo not drawn) [Example 294] | 0.34 |
| c1ccc(Oc2ccc(OCCCn3cnc4ncccc43)cc2)cc1 [Example 350B] | 0.95 |
| c1ccc(Oc2ccc(NCCN3CCCC3)cc2)cc1 [Example 71] | 4.26 |
| NC(=O)N1CCN(CC2Cc3cc(Cc4ccccc4)ccc3O2)CC1 (stereo not drawn) [Example 337] | 0.628 |
| c1ccc(Oc2ccc(OCCCn3cnc4cccnc43)cc2)cc1 [Example 350A] | 13.6 |
| Brc1ccc(COc2ccc(OCCN3CCCC3)cc2)cc1 [Example 203] | 3.3 |
| c1ccc2ncc(COc3ccc(OCCN4CCCC4)cc3)cc2c1 [Example 201] | 1.75 |
| CCOC(=O)C1CCN(CC2Cc3cc(Cc4ccccc4)ccc3O2)CC1 (stereo not drawn) [Example 282] | 1.37 |
| c1ccc(Oc2ccc(OCCCn3cccc4ncnc3-4)cc2)cc1 [Example 350C] | 1.67 |
| Fc1ccc(COc2ccc(OCCN3CCCC3)cc2)cc1 [Example 205] | 1.15 |
| c1ccc(Cc2ccc3c(c2)CCC(CN2CCCC2)O3)cc1 (stereo not drawn) [Example 292] | 0.052 |
| CCOC(=O)CCN(CCCOc1ccc(Cc2ccccc2)cc1)Cc1cccnc1 [Example 414] | 0.83 |
| CCOC(=O)C1CCN(CCOc2ccc(Oc3ccccc3)cc2)CC1 [Example 254] | 1.26 |
| c1ccc(COc2ccc(OCCn3ccc4ncnc-4c3)cc2)cc1 [Example 347C] | 0.38 |
| Fc1ccccc1COc1ccc(OCCN2CCCC2)cc1 [Example 207] | 0.64 |
